From the supplement of paper PMC10331698
± gives the standard deviation of the averaged measurements.

Experiments:
Assay in all cases: level (log10 ratio to DMSO vehicle control); higher = higher biomarker level / cell amount than vehicle control
Details in all cases: in DMSO
[1] = compound: OCCC(F)(F)C(F)(F)C(F)(F)C(F)(F)C(F)(F)C(F)(F)F [6:2 Fluorotelomer alcohol]
Experimental: (§1)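 BioMAP Diversity Plus panel of 12 human primary cell co-culture systems (3C, 4H, LPS, SAg, BT, BF4T, BE3C, CASM3C, HDF3CGF, KF3CT, MyoF, Mphg). Compounds were added 1 h before stimulation and left for 24 h (MyoF 48 h; BT 72 h for soluble read-outs or 6 d for IgG). Biomarkers were read by ELISA, cytotoxicity by SRB, PBMC viability and proliferation by Alamar Blue. Each well value was divided by the mean of 8 DMSO control wells on the same plate and log10 transformed; duplicate blinded samples were tested at 4 concentrations.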

[2] = compound: OCC(F)(F)OC(F)(F)C(F)(F)OC(F)(F)CO [1H,1H,8H,8H-Perfluoro-3,6-dioxaoctane-1,8-diol]
Experimental: as §1

[3] = compound: C=CC(F)(F)C(F)(F)C(F)(F)C(F)(F)C(F)(F)C(F)(F)C(F)(F)C(F)(F)C=C [1,8-Divinylperfluorooctane]
Experimental: as §1

[4] = compound: O=C(O)C(F)(F)C(F)(F)OC(F)(F)F [Perfluoro-3-methoxypropanoic acid]
Experimental: as §1

Perfluorodecanoic acid = compound: O=C(O)C(F)(F)C(F)(F)C(F)(F)C(F)(F)C(F)(F)C(F)(F)C(F)(F)C(F)(F)C(F)(F)F [Perfluorodecanoic acid]
Experimental: as §1

Perfluoropentanoic acid = compound: O=C(O)C(F)(F)C(F)(F)C(F)(F)C(F)(F)F [Perfluoropentanoic acid]
Experimental: as §1

[5] = compound: O=S(=O)(O)C(F)(F)C(F)(F)C(F)(F)C(F)(F)C(F)(F)C(F)(F)F [Perfluorohexanesulfonic acid]
Experimental: as §1

Test System	level (log10) ([1]; 6700 nM)	level (log10) ([1]; 20000 nM)	level (log10) ([2]; 6700 nM)	level (log10) ([2]; 20000 nM)	level (log10) ([2]; 60000 nM)	level (log10) ([3]; 6700 nM)	level (log10) ([3]; 20000 nM)	level (log10) ([4]; 6700 nM)	level (log10) ([4]; 20000 nM)	level (log10) ([4]; 60000 nM)	level (log10) (Perfluorodecanoic acid; 6700 nM)	level (log10) (Perfluorodecanoic acid; 20000 nM)	level (log10) (Perfluoropentanoic acid; 6700 nM)	level (log10) (Perfluoropentanoic acid; 20000 nM)	level (log10) (Perfluoropentanoic acid; 60000 nM)	level (log10) ([5]; 6700 nM)	level (log10) ([5]; 20000 nM)	level (log10) ([5]; 60000 nM)
BF4T:MMP-9	-0.0025 ± 0.011	-0.0105 ± 0.00071	-0.026 ± 0.047	-0.0145 ± 0.025	0.01 ± 0.037	-0.004 ± 0.071	-0.0115 ± 0.033	-0.002 ± 0.0028	-0.0125 ± 0.011	0.032 ± 0.013	-0.025 ± 0.0057	-0.282 ± 0.023	-0.0115 ± 0.0064	-0.0115 ± 0.019	-0.0005 ± 0.035	0.006 ± 0.065	0.0115 ± 0.073	0.0135 ± 0.056
BF4T:PAI-I	0.013 ± 0.013	0.011 ± 0.0099	-0.005 ± 0.02	-0.015 ± 0.011	-0.001 ± 0.013	-0.01 ± 0.0057	0.0055 ± 0.0064	0.0015 ± 0.0064	0.0105 ± 0.0092	0.015 ± 0.017	0.0185 ± 0.00071	-0.119 ± 0.043	-0.003 ± 0.0014	-0.005 ± 0.0028	0.007 ± 0.011	0.0005 ± 0.03	-0.015 ± 0.017	-0.018 ± 0.0028
BF4T:SRB	-0.0065 ± 0.005	-0.0055 ± 0.0078	-0.0045 ± 0.013	-0.0065 ± 0.005	-0.0055 ± 0.0021	-0.0045 ± 0.0021	-0.0025 ± 0.00071	-0.0145 ± 0.0035	-0.0085 ± 0.0021	0.0025 ± 0.022	-0.001 ± 0.0071	-0.256 ± 0.0014	-0.011 ± 0.0085	-0.008 ± 0.0071	0.001 ± 0.0099	-0.01 ± 0.0085	-0.0115 ± 0.0078	-0.0005 ± 0.0021
BF4T:tPA	-0.0215 ± 0.032	-0.0135 ± 0.021	0.0015 ± 0.021	0.003 ± 0.013	0.0045 ± 0.0078	-0.0015 ± 0.018	0.0125 ± 0.015	0.0015 ± 0.037	0.0035 ± 0.018	0.019 ± 0.04	-0.0185 ± 0.005	-0.18 ± 0.097	-0.0295 ± 0.005	-0.0215 ± 0.029	-0.009 ± 0.061	-0.004 ± 0.023	-0.0125 ± 0.013	0.022 ± 0.0057
BF4T:uPA	-0.0185 ± 0.012	-0.006 ± 0.011	-0.0065 ± 0.028	-0.0065 ± 0.03	-0.007 ± 0.03	-0.0045 ± 0.0064	-0.0095 ± 0.012	-0.009 ± 0.021	-0.0015 ± 0.012	0.0155 ± 0.042	0.015 ± 0.011	-0.235 ± 0.043	-0.0315 ± 0.029	-0.031 ± 0.023	-0.0175 ± 0.033	-0.002 ± 0.027	-0.007 ± 0.02	-0.0035 ± 0.037
BT:B cell Proliferation	0.022 ± 0.0057	-0.01 ± 0.014	-0.011 ± 0.0071	0 ± 0.0014	-0.0145 ± 0.0078	0.0035 ± 0.037	0.035 ± 0.0085	-0.022 ± 0.023	0.0015 ± 0.022	0.0135 ± 0.005	0.0135 ± 0.04	0.0395 ± 0.03	0.009 ± 0.0057	0.0215 ± 0.06	0.0275 ± 0.012	-0.0075 ± 0.047	0.0015 ± 0.053	0.063 ± 0.024
BT:PBMC Cytotoxicity	-0.0185 ± 0.026	-0.035 ± 0.0071	0.003 ± 0.017	-0.0035 ± 0.013	-0.009	0.0285 ± 0.0035	0.019 ± 0.0042	-0.0195 ± 0.061	-0.0215 ± 0.019	-0.0005 ± 0.029	0.0195 ± 0.023	0.045 ± 0.045	0.0075 ± 0.035	-0.0055 ± 0.0078	0.0255 ± 0.013	0.0015 ± 0.016	0.0325 ± 0.0035	0.061 ± 0.0057
BT:Secreted IgG	0.02	0.0195 ± 0.0035	-0.0135 ± 0.06	0.0085 ± 0.04	-0.054 ± 0.021	0.022 ± 0.0071	0.0255 ± 0.019	-0.0085 ± 0.0021	0.01 ± 0.018	0.0155 ± 0.0035	-0.014 ± 0.033	-0.018 ± 0.02	-0.0065 ± 0.016	0.0145 ± 0.0035	-0.009 ± 0.059	-0.0295 ± 0.0064	0.0015 ± 0.0064	0.0085 ± 0.0035
BT:sIL-2	-0.008 ± 0.057	-0.0135 ± 0.019	0.002 ± 0.059	-0.0075 ± 0.035	0.033 ± 0.042	0.014 ± 0.035	0.022 ± 0.05	-0.002 ± 0.13	-0.0015 ± 0.032	0.016 ± 0.0042	0.008 ± 0.092	0.118 ± 0.013	-0.0115 ± 0.17	0.0385 ± 0.00071	0.0385 ± 0.0078	-0.059 ± 0.031	0.0015 ± 0.035	-0.001 ± 0.027
BT:sIL-6	0.0115 ± 0.032	-0.038 ± 0.028	0.057 ± 0.0099	0.0215 ± 0.021	-0.0445 ± 0.026	0.039 ± 0.016	0.0415 ± 0.071	0.004 ± 0.11	0.0285 ± 0.036	-0.0045 ± 0.05	-0.029 ± 0.071	0.077 ± 0.058	-0.0355 ± 0.1	0.01 ± 0.051	0.022 ± 0.04	0.046 ± 0.052	0.0105 ± 0.036	-0.056 ± 0.061
BT:sIL-17A	0.0375 ± 0.015	-0.0005 ± 0.11	0.144 ± 0.073	-0.0645 ± 0.022	-0.128 ± 0.16	-0.0055 ± 0.026	0.0625 ± 0.079	0.035 ± 0.27	-0.0495 ± 0.076	0.0575 ± 0.12	-0.0525 ± 0.0092	-0.0075 ± 0.17	0.0585 ± 0.042	-0.0535 ± 0.0078	0.055 ± 0.13	0.135 ± 0.11	-0.0225 ± 0.25	-0.133
BT:sIL-17F	-0.087 ± 0.17	-0.146 ± 0.18	0.045	-0.0205 ± 0.023	-0.137 ± 0.096	0.012 ± 0.037	0.051 ± 0.0057	-0.161 ± 0.067	-0.033 ± 0.052	-0.0115 ± 0.011	0.019 ± 0.016	0.0345 ± 0.13	-0.06 ± 0.027	-0.0325 ± 0.044	0.0375 ± 0.19	0.0235 ± 0.09	0.0375 ± 0.018	-0.063
BT:sTNF-alpha	0.071 ± 0.028	-0.0445 ± 0.015	0.17 ± 0.053	0.023 ± 0.19	-0.036 ± 0.1	0.016 ± 0.13	0.102 ± 0.081	0.055 ± 0.035	-0.0805 ± 0.084	0.0205 ± 0.17	0.0625 ± 0.047	0.018 ± 0.0099	-0.0575 ± 0.25	0.0875 ± 0.012	0.105 ± 0.04	0.024 ± 0.13	-0.011 ± 0.034	-0.0495 ± 0.044
LPS:CCL2/MCP-1	0.002 ± 0.0085	-0.022 ± 0.0071	-0.002	-0.015 ± 0.0071	0.008 ± 0.0057	0.0065 ± 0.021	0.0145 ± 0.029	-0.005 ± 0.0057	0.003 ± 0.0071	0.0055 ± 0.03	-0.0005 ± 0.012	-0.0015 ± 0.0064	0.0065 ± 0.0064	-0.0065 ± 0.00071	0.0225 ± 0.039	0.0045 ± 0.0064	0.0045 ± 0.0064	0.028 ± 0.024
